The results in this text go back to US6849576B2, “Plant-activating agent” (Kao Corporation, priority 2000, dated 2005).

Test [1] deals with Chlorella vulgaris. Put plainly: Reproduction of green cells: chlorella cultivation, cell count at 8th day. The format is cell-based. The note with it: chlorella cell number at 8th day (192 hours), relative value, control area = 100. The protocol:
(§1) In case of a unicellular organism, an individual of this organism can be used itself as a green cell. […] When chlorella is used, a test substance acting as a plant-activating agent is added to an inorganic salt medium for chlorella (test area), and the number of cells (cells/ml) when cultivation is conducted for a certain period can be compared with the number of cells (cells/ml) in the non-added system cultivated under the same condition (control area), for calculation. Further, cells in the form of callus can also be used. As the callus, a liverwort (Harchantia polymorpha L.) callus may be exemplified. When a callus is used, the test substance acting as a plant-activating agent is added to e.g. a sterilized medium for calluses (test area), and the weight of callus when cultivation is conducted for a certain period can be compared with the weight of callus of the non-added system cultivated under the same condition (control area), for calculation. In any case, the concentration of the test substance in the test area is not limited but suitably from 0.1 to 1000 ppm in terms of effective components.
Herein, the substance acting as the plant-activating agent has been added in a concentration of 10 ppm in terms of effective components into a culturing solution in the test area. This substance is not added into the control area. After sterilization, the temperature of the medium is returned to a normal temperature. The number of Chlorella vulgaris which has been sub-cultivated previously is counted under a microscope using a blood cell counting chamber of Thoma, and chlorella is added to the sterilized medium so as to have a concentration of 1.0×10^5 (cells/ml). These operations are conducted in a clean bench when the sterilized condition is necessary. Cultivation is carried out in a shaking incubator rotating at 110 rpm at 23° C. under continuous illumination (with illuminance of 10 klx.) with carbon dioxide and humidity under natural conditions.
This measurement is repeated five times in each area, and the average values (P0, P1) are made as the number of chlorella after cultivation.

Test [2] relates to liverwort callus cells. Nature of the test: Reproduction of green cells: liverwort callus cultivation, fresh weight at 10th day. The format is cell-based, liverwort (Harchantia polymorpha L.). Conditions: liverwort callus fresh weight at 10th day (240 hours); relative value, control area = 100; concentrations (ppm) as in Table 7. As to the method: as §1
100 ml of the medium (MSK2 medium) for liverworts were placed into a 500-ml Erlenmeyer flask, and the flask was capped with a silicon cap having its ventilative property and placed into an autoclave (at a high temperature, under a high pressure, and a sterilized oven) to sterilize the medium (for 20 minutes). Herein, the substance acting as the plant-activating agent was added in a concentration shown in Table 7 into a culturing solution in the test area. After sterilization, the temperature of the medium was returned to a normal temperature. 2 ml of liverwort callus cells under a steady state, which had been sub-cultivated previously, were sucked up by a 2-ml Komagome pipette (measuring pipet) and incubated to the sterilized medium. These operations are conducted in a clean bench when sterilized condition is necessary. Cultivation is carried out in a shaking incubator rotating at 110 rpm at 23° C. under continuous illumination (with illuminance of 10 klx.) with carbon dioxide and humidity under natural conditions. Tenth day (after 240 hours) after starting the cultivation, the whole culturing solution in each area was filtrated under suction, and the fresh weight (raw weight) (g) of the callus cell was measured. This was made as the amount in reproduction of green cells, and the improved degree in reproduction of green cells was measured by the above-described formula.

Where [3] appears, read: concentrations (ppm) as in Table 1.
Setting [4] is: concentrations (ppm) as in Table 2.

Consider “POE(20) sorbitan oleate [Comparative product 1-1, reference compound]”, for which, in test [1] (setting [3]), the “Improved degree in reproduction of green cells” value (“Improved degree in reproduction” for short) was found to be 85.
On to `O=C([O-])CCC(=O)[O-].[Na+].[Na+]` [Comparative product 1-2, Sodium succinate, reference compound], for which the “Improved degree in reproduction” value in test [1] (setting [3]) worked out at 90.
On the same count and under the same terms, to Vitamin B12 [Inventive product 1-19] belongs 110.
Turning to `Cc1ncc(CO)c(CO)c1O` [Inventive product 2-16, Vitamin B6], the “Improved degree in reproduction” value in test [1] (setting [4]) was 122.
“Stearic acid diglyceride [Inventive product 1-13]”: the “Improved degree in reproduction” value in test [1] (setting [3]) was determined as 140.
With “POE(1) stearyl ether [Inventive product 2-9]”, in test [1] (setting [4]), the “Improved degree in reproduction” value turned out to be 153.
On the same count and under the same terms, the same measure for Vitamin B12 [Inventive product 2-17]: 118; for “POE(20) sorbitan oleate [Comparative product 2-1, reference compound]”: 80.
On to `O=C([O-])CN(CCN(CC(=O)[O-])CC(=O)[O-])CC(=O)[O-].[Na+].[Na+].[Na+].[Na+]` [Comparative product 1-3, EDTA-4Na, reference compound], for which the “Improved degree in reproduction” value in test [1] (setting [3]) is on record as 92.
Take `O=C([O-])CN(CCN(CC(=O)[O-])CC(=O)[O-])CC(=O)[O-].[Na+].[Na+].[Na+].[Na+]` [Comparative product 5-3, EDTA-4Na, reference compound]: in test [2], the “Improved degree in reproduction” value is on record as 90.
Take `O=S(=O)([O-])CCO.[Na+]` [Inventive product 5-3, Sodium isethionate]: in test [2], the “Improved degree in reproduction” value came to 115.
Still for that read-out and setting: to `O=C(O)C(O)C(O)C(=O)O` (centres unmarked) [Inventive product 5-21, Tartaric acid] belongs 110; to `CCCCCCCCCCCCCCCCCCOC(=O)CCCCCCCCCCCCCCCCC` [Inventive product 5-10, Stearyl sterate], 125.
Same read-out and setting: the same measure for `O=C(O)CCCC[C@@H]1SC[C@@H]2NC(=O)N[C@@H]21` [Inventive product 5-24, Biotin]: 106.
Consider `O=C([O-])CN(CCN(CC(=O)[O-])CC(=O)[O-])CC(=O)[O-].[Na+].[Na+].[Na+].[Na+]` [Comparative product 2-3, EDTA-4Na, reference compound], for which the “Improved degree in reproduction” value in test [1] (setting [4]) came out at 90.
As to “Stearic acid diglyceride [Inventive product 2-11]”, the “Improved degree in reproduction” value in test [1] (setting [4]) came out at 136.
For the molecule `CCCCCCCCCCCCCCCCCCOC(=O)C(O)CO` (centres unmarked) [Inventive product 5-17, Glyceric acid stearyl ester], in test [2], the “Improved degree in reproduction” value was found to be 108.
“POE(1) stearyl ether [Inventive product 1-11]”: the “Improved degree in reproduction” value in test [1] (setting [3]) is on record as 160.
Take `CCCCCCCCCCCCCCCCCC(=O)O` [Inventive product 2-1, Stearyl acid]: the “Improved degree in reproduction” value in test [1] (setting [4]) is 156.
For the molecule `CCCCCCCCCCCCCCCC(=O)O` [Inventive product 5-2, Palmitic acid], the “Improved degree in reproduction” value in test [2] was 110.
The same measure, in the same setting: to “Stearic acid monoglyceride [Inventive product 5-23]” belongs 118.
As for `O=C([O-])CCC(=O)[O-].[Na+].[Na+]` [Comparative product 2-2, Sodium succinate, reference compound], the “Improved degree in reproduction” value in test [1] (setting [4]) is on record as 92.
Turning to “Citric acid monooleyl axnide [Inventive product 1-8]”, the “Improved degree in reproduction” value in test [1] (setting [3]) was determined as 148.
In the case of `CCCCCCCCCCCCCCCCCCOCCCCCCCCCCCCCCCCCC` [Inventive product 5-9, Distearyl ether], in test [2], the “Improved degree in reproduction” value worked out at 135.
The same measure, in the same setting: to `O=C([O-])CCC(=O)[O-].[Na+].[Na+]` [Comparative product 5-2, Sodium succinate, reference compound] belongs 91.
For the molecule `Cc1ncc(CO)c(CO)c1O` [Inventive product 1-18, Vitamin B6], the “Improved degree in reproduction” value in test [1] (setting [3]) is reported as 118.
“Stearic acid diglyceride [Inventive product 5-13]”: the “Improved degree in reproduction” value in test [2] is recorded as 126.
Still for that read-out and setting: to `CCCCCCCCCCCCCCCCCC(=O)O` [Inventive product 5-1, Stearic acid] belongs 120.
As to “Stearic acid monoglyceride [Inventive product 1-23]”, in test [1] (setting [3]), the “Improved degree in reproduction” value is 140.
In the case of “Citric acid monostearate [Inventive product 5-7]”, the “Improved degree in reproduction” value in test [2] stood at 135.
The same measure, in the same setting: the same measure for `Cc1ncc(CO)c(CO)c1O` [Inventive product 5-18, Vitamin B6]: 107.
The same measure, in the same setting: the same measure for “POE(20) sorbitan oleate [Comparative product 5-1, reference compound]”: 72.
